# Laboratory results taken from patent US11226337B2, “Chemoproteomic profiling of protein electrophilic and oxidative post-translational modifications” (Zenagem, LLC, priority 2017, dated 2022).
# What was measured:
# [1] = target: T1, LEPRE1 Prolyl 3hydroxylase 1 (Q32P28) (Homo sapiens, UniProt Q32P28); experiment: SILAC RP-ABPP; type: cell-based; settings: SILAC H/L, MDA-MB-231
# T1 construct: In Situ Labelling of Cells with Hydrazine Probes for MS Experiments; endogenous in cells
# T1 sequence (Q32P28 23-736): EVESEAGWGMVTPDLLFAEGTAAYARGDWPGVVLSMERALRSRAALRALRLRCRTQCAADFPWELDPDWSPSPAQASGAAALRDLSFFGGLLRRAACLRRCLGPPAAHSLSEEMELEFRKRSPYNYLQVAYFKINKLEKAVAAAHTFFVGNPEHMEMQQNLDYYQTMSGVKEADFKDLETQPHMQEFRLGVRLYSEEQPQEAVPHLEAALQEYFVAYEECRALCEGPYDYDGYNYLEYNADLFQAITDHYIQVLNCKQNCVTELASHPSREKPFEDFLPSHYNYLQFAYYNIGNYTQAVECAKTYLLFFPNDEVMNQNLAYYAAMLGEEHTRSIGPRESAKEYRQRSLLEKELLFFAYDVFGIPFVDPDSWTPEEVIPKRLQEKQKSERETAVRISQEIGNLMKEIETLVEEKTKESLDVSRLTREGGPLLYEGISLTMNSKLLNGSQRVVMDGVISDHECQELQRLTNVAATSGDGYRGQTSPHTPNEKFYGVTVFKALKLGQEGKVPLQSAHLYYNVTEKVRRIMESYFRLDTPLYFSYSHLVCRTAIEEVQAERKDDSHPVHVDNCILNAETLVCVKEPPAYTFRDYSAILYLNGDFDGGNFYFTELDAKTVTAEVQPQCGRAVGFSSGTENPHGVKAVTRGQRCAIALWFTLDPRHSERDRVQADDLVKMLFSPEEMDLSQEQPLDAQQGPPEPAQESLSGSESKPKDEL
# [2] = target: T2, PLOD1 Procollagenlysine, 2oxoglutarate (Q02809) (Homo sapiens, UniProt Q02809); experiment: SILAC RP-ABPP; type: cell-based; settings: SILAC H/L, MDA-MB-231
# T2 construct: In Situ Labelling of Cells with Hydrazine Probes for MS Experiments; endogenous in cells
# T2 sequence (Q02809 19-727): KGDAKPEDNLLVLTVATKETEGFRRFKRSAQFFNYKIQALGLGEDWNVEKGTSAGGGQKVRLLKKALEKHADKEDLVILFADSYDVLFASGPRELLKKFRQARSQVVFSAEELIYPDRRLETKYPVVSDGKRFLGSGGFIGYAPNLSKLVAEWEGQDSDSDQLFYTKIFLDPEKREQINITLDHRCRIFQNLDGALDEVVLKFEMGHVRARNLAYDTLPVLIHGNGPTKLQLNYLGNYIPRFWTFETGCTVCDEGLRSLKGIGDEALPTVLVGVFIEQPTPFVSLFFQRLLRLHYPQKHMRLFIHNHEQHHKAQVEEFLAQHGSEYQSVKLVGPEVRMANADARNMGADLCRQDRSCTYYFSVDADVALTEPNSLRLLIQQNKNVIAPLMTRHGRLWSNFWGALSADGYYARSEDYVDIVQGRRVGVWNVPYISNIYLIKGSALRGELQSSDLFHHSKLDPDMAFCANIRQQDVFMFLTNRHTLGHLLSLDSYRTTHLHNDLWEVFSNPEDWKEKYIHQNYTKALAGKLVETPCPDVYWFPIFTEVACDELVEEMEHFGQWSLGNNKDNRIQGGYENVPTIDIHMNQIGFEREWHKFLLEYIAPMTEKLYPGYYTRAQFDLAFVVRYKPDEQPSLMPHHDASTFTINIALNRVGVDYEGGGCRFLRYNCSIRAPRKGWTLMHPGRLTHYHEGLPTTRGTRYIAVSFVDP
Compound,enrichment ratioavg ([1]; probe 1 3 mM 0.5 h vs probe 3),competition ratioavg ([1]; probe 1 vs probe 1+10x probe 3),enrichment ratioavg ([2]; probe 1 3 mM 0.5 h vs probe 3),competition ratioavg ([2]; probe 1 vs probe 1+10x probe 3),enrichment ratioavg ([1]; probe 2 1 mM 0.5 h vs probe 4),competition ratioavg ([1]; probe 2 vs probe 2+10x probe 4),enrichment ratioavg ([2]; probe 2 1 mM 0.5 h vs probe 4),competition ratioavg ([2]; probe 2 vs probe 2+10x probe 4)
"C#CCNN.Cl [probe 1, prop-2-yn-1-ylhydrazine hydrochloride]",8,3,6,3,–,–,–,–
"C#CCCNC(=O)c1ccc(NN)cc1.Cl [probe 2, N-(but-3-yn-1-yl)-4-hydrazinylbenzamide hydrochloride]",–,–,–,–,8,2,8,3
